# Experimental data published in ChEMBL document CHEMBL1240505, “Studies on preparation and photodynamic mechanism of chlorin P6-13,15-N-(cyclohexyl)cycloimide (Chlorin-H) and its antitumor effect for photodynamic therapy in vitro and in vivo” (Bioorg Med Chem, 2010).
# The source made the active and inactive calls. The rule behind the calls is not given here.
# Tests used:
# [1] = tested on: A549; assay: Antitumor activity against human A549 cells xenografted in nude BALB/C mouse assessed as scab formation at 8 uM after 24 hrs followed by irradiated with light dose 78 J/cm2 measured after 20 days; assay type: functional, cell-based
# [2] = tested on: A549; assay: Antitumor activity against human A549 cells xenografted in nude BALB/C mouse assessed as reduction of tumor growth at 8 uM after 20 days; assay type: functional, cell-based
# [3] = Drug uptake in human U87 cell mitochondria by using Hoechst 33258 staining; assay type: ADME; details: u-87mg atcc
# [4] = Drug uptake in human U87 cell nucleus by using Hoechst 33258 staining; assay type: ADME, cell-based; details: u-87mg atcc
# [5] = Drug uptake in human A549 cell mitochondria by using Hoechst 33258 staining; assay type: ADME
# [6] = Drug uptake in human A549 cell nucleus by using Hoechst 33258 staining; assay type: ADME, cell-based
# [7] = tested on: AGS; assay: Cytotoxicity against human AGS cells assessed as cell death at 4 uM after 24 hrs followed by irradiated with light dose 0.18 J/cm2 by MTT assay; assay type: functional, cell-based
# [8] = tested on: SGC-7901; assay: Cytotoxicity against human SGC7901 cells assessed as cell death at 4 uM after 24 hrs followed by irradiated with light dose 0.18 J/cm2 by MTT assay; assay type: functional, cell-based
# [9] = tested on: A549; assay: Cytotoxicity against human A549 cells assessed as cell death at 4 uM after 24 hrs followed by irradiated with light dose 0.18 J/cm2 by MTT assay; assay type: functional, cell-based
# [10] = tested on: SW480; assay: Cytotoxicity against human SW480 cells assessed as cell death at 4 uM after 24 hrs followed by irradiated with light dose 0.18 J/cm2 by MTT assay; assay type: functional, cell-based
# [11] = tested on: HL-60; assay: Cytotoxicity against human HL60 cells assessed as cell death at 4 uM after 24 hrs followed by irradiated with light dose 0.18 J/cm2 by MTT assay; assay type: functional, cell-based
# [12] = tested on: HL-60; assay: Cytotoxicity against human HL60 cells assessed as cell survival at 4 uM after 24 hrs followed by irradiated with light dose 0.18 J/cm2 by MTT assay; assay type: functional; details: HL-60, light or radiation study, read-out: Activity
# [13] = tested on: A549; assay: Antiproliferative activity against human A549 cells assessed as reduction of colony formation at 4 uM irradiated with light dose 0.18 J/cm2 for 14 days before compound challenge measured after 24 hrs using giemsa staining by microscopic analysis; assay type: functional, cell-based
# [14] = tested on: A549; assay: Inhibition of cell invasion in human A549 cells assessed as invasion index at 4 uM after 72 hrs followed by irradiated with light dose 0.18 J/cm2 relative to control; assay type: functional; details: A549, light or radiation study
# [15] = tested on: A549; assay: Inhibition of cell invasion in human A549 cells assessed as invasion index at 4 uM after 72 hrs relative to control; assay type: functional; details: A549, 72 h
# [16] = tested on: A549; assay: Cell cycle arrest in human A549 cells assessed as accumulation at G0/G1 phase at 4 uM after 24 hrs by flow cytometry; assay type: functional
# [17] = tested on: A549; assay: Cell cycle arrest in human A549 cells assessed as accumulation at G2/M phase at 4 uM after 24 hrs by flow cytometry; assay type: functional
# [18] = tested on: A549; assay: Cell cycle arrest in human A549 cells assessed as accumulation at S phase at 4 uM after 24 hrs by flow cytometry; assay type: functional
# [19] = tested on: A549; assay: Cell cycle arrest in human A549 cells assessed as accumulation at G0/G1 phase at 4 uM after 24 hrs followed by irradiated with light dose 0.18 J/cm2 by flow cytometry; assay type: functional
# [20] = tested on: A549; assay: Cell cycle arrest in human A549 cells assessed as accumulation at G2/M phase at 4 uM after 24 hrs followed by irradiated with light dose 0.18 J/cm2 by flow cytometry; assay type: functional
# [21] = tested on: A549; assay: Cell cycle arrest in human A549 cells assessed as accumulation at S phase at 4 uM after 24 hrs followed by irradiated with light dose 0.18 J/cm2 by flow cytometry; assay type: functional
# [22] = tested on: A549; assay: Induction of apoptosis in human A549 cells assessed as pre-necrotic cells at 4 uM after 24 hrs using annexin-V FITC/PI double staining by flow cytometry; assay type: functional
# [23] = tested on: A549; assay: Induction of apoptosis in human A549 cells assessed as late apoptotic cells at 4 uM after 24 hrs using annexin-V FITC/PI double staining by flow cytometry; assay type: functional
# [24] = tested on: A549; assay: Induction of apoptosis in human A549 cells assessed as viable cells at 4 uM after 24 hrs using annexin-V FITC/PI double staining by flow cytometry; assay type: functional; details: A549, 24 h, read-out: Activity
# [25] = tested on: A549; assay: Induction of apoptosis in human A549 cells assessed as apoptotic cells at 4 uM after 24 hrs using annexin-V FITC/PI double staining by flow cytometry; assay type: functional
# [26] = tested on: A549; assay: Induction of apoptosis in human A549 cells assessed as pre-necrotic cells at 4 uM after 24 hrs followed by irradiated with light dose 0.18 J/cm2 using annexin-V FITC/PI double staining by flow cytometry; assay type: functional
# [27] = tested on: A549; assay: Induction of apoptosis in human A549 cells assessed as late apoptotic cells at 4 uM after 24 hrs followed by irradiated with light dose 0.18 J/cm2 using annexin-V FITC/PI double staining by flow cytometry; assay type: functional
# [28] = tested on: A549; assay: Induction of apoptosis in human A549 cells assessed as viable cells at 4 uM after 24 hrs followed by irradiated with light dose 0.18 J/cm2 using annexin-V FITC/PI double staining by flow cytometry; assay type: functional; details: A549, light or radiation study, read-out: Activity
# [29] = tested on: A549; assay: Induction of apoptosis in human A549 cells assessed as apoptotic cells at 4 uM after 24 hrs followed by irradiated with light dose 0.18 J/cm2 using annexin-V FITC/PI double staining by flow cytometry; assay type: functional
# [30] = tested on: A549; assay: Induction of apoptosis in human A549 cells assessed as pre-necrotic cells at 4 uM after 24 hrs using annexin-V-PE/7-AAD double staining by flow cytometry; assay type: functional
smiles,measurement,setting,value
C=Cc1c(C)c2cc3nc(c4c5[nH]c(cc6nc(cc1[nH]2)C(C)=C6CC)c(C)c5C(=O)N(C1CCCCC1)C4=O)[C@@H](CCC(=O)O)[C@@H]3C,Activity,[1],Active
same,Activity,[2],inactive
same,Drug uptake,[3],Active
same,Drug uptake,[4],Active
same,Drug uptake,[5],Active
same,Drug uptake,[6],Active
same,Activity,[7],Active
same,Activity,[8],Active
same,Activity,[9],Active
same,Activity,[10],Active
same,Activity,[11],Active
same,viability at 4 µM,[12],78.6%
same,Activity,[13],Active
same,inhibition at 4 µM,[14],15.7%
same,inhibition at 4 µM,[15],76.4%
same,Activity,[16],53.48%
same,Activity,[17],11.07%
same,Activity,[18],35.44%
same,Activity,[19],22.37%
same,Activity,[20],56.07%
same,Activity,[21],21.56%
same,Activity,[22],0.24%
same,Activity,[23],3.03%
same,viability at 4 µM,[24],92.3%
same,Activity,[25],0.99%
same,Activity,[26],0.4%
same,Activity,[27],23.28%
same,viability at 4 µM,[28],2.08%
same,Activity,[29],74.24%
same,Activity,[30],0.41%
